Experimental data reported in ChEMBL document CHEMBL1201862, “PubChem BioAssay data set” (2004).
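These data come from cells grown in 96-well plates and exposed to compound for 48 hours at five concentrations. GI50: concentration for 50% inhibition of growth.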 The source made the active and inactive calls. Cut-off read from the data, not from the text of the source: active = GI50 up to about 1.1 µM and inactive = higher.

Experiments:
Experiment in all cases: inhibition of tumour cell growth, NCI panel, 48 h
[1] = system: T47D
[2] = system: Hs-578T
[3] = system: 786-0
[4] = system: SNB-75
[5] = system: OVCAR-8
[6] = system: RPMI-8226
[7] = system: SF-295
[8] = system: NCI-H23
[9] = system: OVCAR-5
[10] = system: SR
[11] = system: M14
[12] = system: A549
[13] = system: TK-10
[14] = system: SK-OV-3
[15] = system: KM12
[16] = system: DU-145
[17] = system: HL-60
[18] = system: HT-29
[19] = system: HCT-116
[20] = system: CCRF-CEM
[21] = system: K562
[22] = system: HCC 2998
[23] = system: PC-3
[24] = system: OVCAR-3
[25] = system: NCI-H460
[26] = system: A498
[27] = system: COLO 205
[28] = system: ACHN
[29] = system: SK-MEL-5
[30] = system: NCI-H522
[31] = system: HOP-92
[32] = system: U-251
[33] = system: IGROV-1
[34] = system: EKVX
[35] = system: Malme-3M
[36] = system: BT-549
[37] = system: LOX IMVI
[38] = system: RXF 393
[39] = system: UACC-257
[40] = system: NCI/ADR-RES
[41] = system: CAKI-1
[42] = system: MDA-N
[43] = system: UO-31
[44] = system: MDA-MB-435
[45] = system: OVCAR-4
[46] = system: SF-539
[47] = system: MDA-MB-231
[48] = system: NCI-H226
[49] = system: SK-MEL-28
[50] = system: MCF7
[51] = system: SN12C
[52] = system: SNB-19
[53] = system: SW-620
[54] = system: MOLT-4
[55] = system: SK-MEL-2
[56] = system: SF-268
[57] = system: UACC-62
[58] = system: HOP-62
[59] = system: HCT-15

With `N#C[C@H](c1nc2ccccc2[nH]1)c1nc2ccccc2nc1Cl` the GI50 [1] was 3.96 µM (inactive), the GI50 [2] was 2.05 µM (inactive) and the GI50 [3] was 7.62 µM (inactive). For the same molecule, the GI50 [4] was 12.9 µM (inactive), the GI50 [5] was 12.6 µM (inactive) and the GI50 [6] was 8.93 µM (inactive). The GI50 [7] was > 61.4 µM (inactive), the GI50 [8] was > 34.3 µM (inactive) and the GI50 [9] was > 44.3 µM (inactive). The GI50 [10] was 3.09 µM (inactive), the GI50 [11] was > 23.4 µM (inactive) and the GI50 [12] was > 54.5 µM (inactive). For the same molecule, the GI50 [13] was 14 µM (inactive), the GI50 [14] was > 53.8 µM (inactive) and the GI50 [15] was 4.35 µM (inactive). The GI50 [16] was 1.78 µM (inactive), the GI50 [17] was 0.881 µM (active) and the GI50 [18] was 5.55 µM (inactive). The GI50 [19] was 6.25 µM (inactive), the GI50 [20] was 2.64 µM (inactive) and the GI50 [21] was 4.2 µM (inactive). For the same molecule, the GI50 [22] was > 40.6 µM (inactive), the GI50 [23] was > 25.9 µM (inactive) and the GI50 [24] was > 100 µM (inactive). For the same molecule, the GI50 [25] was > 25.1 µM (inactive), the GI50 [26] was 26.2 µM (inactive) and the GI50 [27] was 12.8 µM (inactive). For the same molecule, the GI50 [28] was > 23.1 µM (inactive), the GI50 [29] was 5.98 µM (inactive) and the GI50 [30] was 2.85 µM (inactive). For the same molecule, the GI50 [31] was > 29 µM (inactive), the GI50 [32] was 15.8 µM (inactive) and the GI50 [33] was 11.2 µM (inactive). For the same molecule, the GI50 [34] was 9.68 µM (inactive), the GI50 [35] was 12.4 µM (inactive) and the GI50 [36] was > 28.2 µM (inactive). For the same molecule, the GI50 [37] was 3 µM (inactive), the GI50 [38] was > 100 µM (inactive) and the GI50 [39] was > 38.7 µM (inactive). For the same molecule, the GI50 [40] was 29.8 µM (inactive), the GI50 [41] was 4.68 µM (inactive) and the GI50 [42] was 16.7 µM (inactive). The GI50 [43] was > 47 µM (inactive), the GI50 [44] was 14.3 µM (inactive) and the GI50 [45] was > 35.2 µM (inactive). The GI50 [46] was > 100 µM (inactive), the GI50 [47] was 12.7 µM (inactive) and the GI50 [48] was 22.1 µM (inactive). The GI50 [49] was 20.2 µM (inactive), the GI50 [50] was > 26 µM (inactive) and the GI50 [51] was 12.7 µM (inactive). For the same molecule, the GI50 [52] was 19.9 µM (inactive), the GI50 [53] was 6.08 µM (inactive) and the GI50 [54] was 4.04 µM (inactive).
For `COc1cc(C2c3cc4c(cc3CC3COC(=O)N32)OCO4)cc(OC)c1OC` (configuration not stated), the GI50 [1] was > 100 µM (inactive), the GI50 [2] was 2.52 µM (inactive) and the GI50 [3] was 3.09 µM (inactive). For the same molecule, the GI50 [4] was 14.8 µM (inactive), the GI50 [5] was 4.03 µM (inactive) and the GI50 [6] was 3.13 µM (inactive). The GI50 [7] was 0.729 µM (active), the GI50 [55] was 6.73 µM (inactive) and the GI50 [9] was > 53.1 µM (inactive). The GI50 [10] was 1.57 µM (inactive), the GI50 [11] was 3.37 µM (inactive) and the GI50 [12] was 3.08 µM (inactive). The GI50 [13] was > 22.9 µM (inactive), the GI50 [14] was 3.03 µM (inactive) and the GI50 [15] was 2.44 µM (inactive). For the same molecule, the GI50 [16] was 5.33 µM (inactive), the GI50 [17] was 2.08 µM (inactive) and the GI50 [18] was 2.12 µM (inactive). The GI50 [19] was 2.72 µM (inactive), the GI50 [20] was 2.56 µM (inactive) and the GI50 [21] was 1.57 µM (inactive). The GI50 [22] was 2.93 µM (inactive), the GI50 [56] was 8.04 µM (inactive) and the GI50 [23] was 1.99 µM (inactive). The GI50 [24] was 1.93 µM (inactive), the GI50 [25] was 4 µM (inactive) and the GI50 [26] was 6.31 µM (inactive). For the same molecule, the GI50 [27] was 1.92 µM (inactive), the GI50 [28] was 12.8 µM (inactive) and the GI50 [29] was 1.96 µM (inactive). The GI50 [30] was 1.57 µM (inactive), the GI50 [31] was 14.1 µM (inactive) and the GI50 [32] was 3.79 µM (inactive). For the same molecule, the GI50 [33] was 7.13 µM (inactive), the GI50 [34] was 4.76 µM (inactive) and the GI50 [35] was 2.83 µM (inactive). The GI50 [36] was 6.27 µM (inactive), the GI50 [37] was 3.14 µM (inactive) and the GI50 [38] was 1.57 µM (inactive). The GI50 [39] was 26.1 µM (inactive), the GI50 [40] was 1.58 µM (inactive) and the GI50 [41] was 3.65 µM (inactive). The GI50 [42] was 0.434 µM (active), the GI50 [43] was 5.33 µM (inactive) and the GI50 [57] was 2.61 µM (inactive). The GI50 [44] was 0.404 µM (active), the GI50 [45] was 14.1 µM (inactive) and the GI50 [46] was 2.39 µM (inactive). For the same molecule, the GI50 [58] was 4.12 µM (inactive), the GI50 [47] was 3.71 µM (inactive) and the GI50 [48] was 19.5 µM (inactive). The GI50 [59] was 3.08 µM, the GI50 [49] was 5.05 µM (inactive) and the GI50 [50] was 3.84 µM (inactive). The GI50 [51] was 4.73 µM (inactive), the GI50 [52] was 4.26 µM (inactive) and the GI50 [53] was 2.13 µM (inactive). For the same molecule, the GI50 [54] was 3.67 µM (inactive).
